Reference: ChEMBL document CHEMBL1201862, “PubChem BioAssay data set” (2004)
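Five concentrations, 48 hours, 96-well plates. Here, GI50 denotes the concentration required for 50% inhibition of growth.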 Calls of active or inactive are those of the source. Rule as the data show it: active = GI50 up to about 1.1 µM and inactive = higher.

Key:
Assay in all cases: DTP human tumour cell line panel, 48 h
U-251 = system: U-251
KM-20L2 = system: KM-20L2
SN12C = system: SN12C
ACHN = system: ACHN
RXF 393 = system: RXF 393
OVCAR-8 = system: OVCAR-8
SNB-78 = system: SNB-78
SF-539 = system: SF-539
SK-MEL-5 = system: SK-MEL-5
LXFL 529 = system: LXFL 529
UO-31 = system: UO-31
MOLT-4 = system: MOLT-4
K562 = system: K562
RPMI-8226 = system: RPMI-8226
TK-10 = system: TK-10
KM12 = system: KM12
IGROV-1 = system: IGROV-1
NCI-H23 = system: NCI-H23
SK-MEL-2 = system: SK-MEL-2
EKVX = system: EKVX
SW-620 = system: SW-620
DMS-114 = system: DMS-114
UACC-257 = system: UACC-257
HCT-116 = system: HCT-116
HCT-15 = system: HCT-15
A549 = system: A549
HT-29 = system: HT-29
SNB-19 = system: SNB-19
OVCAR-5 = system: OVCAR-5
SR = system: SR
M19-MEL = system: M19-MEL
UACC-62 = system: UACC-62
OVCAR-3 = system: OVCAR-3
COLO 205 = system: COLO 205
SK-OV-3 = system: SK-OV-3
NCI-H226 = system: NCI-H226
SF-268 = system: SF-268
HCC 2998 = system: HCC 2998
Malme-3M = system: Malme-3M
HOP-92 = system: HOP-92
SF-295 = system: SF-295
786-0 = system: 786-0
SNB-75 = system: SNB-75
SK-MEL-28 = system: SK-MEL-28
DMS-273 = system: DMS-273
DLD-1 = system: DLD-1
OVCAR-4 = system: OVCAR-4
HL-60 = system: HL-60
M14 = system: M14
NCI-H522 = system: NCI-H522
LOX IMVI = system: LOX IMVI
MCF7 = system: MCF7
A498 = system: A498
MDA-N = system: MDA-N
DU-145 = system: DU-145
NCI-H460 = system: NCI-H460
T47D = system: T47D
CAKI-1 = system: CAKI-1
Hs-578T = system: Hs-578T
HOP-62 = system: HOP-62
PC-3 = system: PC-3
MDA-MB-435 = system: MDA-MB-435
NCI/ADR-RES = system: NCI/ADR-RES
BT-549 = system: BT-549
CCRF-CEM = system: CCRF-CEM
MDA-MB-231 = system: MDA-MB-231

For `Cn1c(=O)c2nc3c4ccccc4c(=O)n(C)c3nc2n(C)c1=O`, the GI50 (U-251) was > 100 µM (inactive), the GI50 (KM-20L2) was > 100 µM (inactive) and the GI50 (SN12C) was > 100 µM (inactive). For the same compound, the GI50 (ACHN) was > 100 µM (inactive), the GI50 (RXF 393) was > 100 µM (inactive) and the GI50 (OVCAR-8) was > 100 µM (inactive). For the same compound, the GI50 (SNB-78) was > 100 µM (inactive), the GI50 (SF-539) was > 100 µM (inactive) and the GI50 (SK-MEL-5) was > 100 µM (inactive). The GI50 (LXFL 529) was > 100 µM (inactive), the GI50 (UO-31) was > 100 µM (inactive) and the GI50 (MOLT-4) was > 100 µM (inactive). For the same compound, the GI50 (K562) was > 100 µM (inactive), the GI50 (RPMI-8226) was > 100 µM (inactive) and the GI50 (TK-10) was > 100 µM (inactive). The GI50 (KM12) was > 100 µM (inactive), the GI50 (IGROV-1) was > 100 µM (inactive) and the GI50 (NCI-H23) was > 100 µM (inactive). For the same compound, the GI50 (SK-MEL-2) was > 100 µM (inactive), the GI50 (EKVX) was > 100 µM (inactive) and the GI50 (SW-620) was > 100 µM (inactive). For the same compound, the GI50 (DMS-114) was > 100 µM (inactive), the GI50 (UACC-257) was > 100 µM (inactive) and the GI50 (HCT-116) was > 100 µM (inactive). For the same compound, the GI50 (HCT-15) was over 100 µM, the GI50 (A549) was > 100 µM (inactive) and the GI50 (HT-29) was > 100 µM (inactive). The GI50 (SNB-19) was > 100 µM (inactive), the GI50 (OVCAR-5) was > 100 µM (inactive) and the GI50 (SR) was > 100 µM (inactive). The GI50 (M19-MEL) was > 100 µM (inactive), the GI50 (UACC-62) was > 100 µM (inactive) and the GI50 (OVCAR-3) was > 100 µM (inactive). For the same compound, the GI50 (COLO 205) was > 100 µM (inactive), the GI50 (SK-OV-3) was > 100 µM (inactive) and the GI50 (NCI-H226) was > 100 µM (inactive). For the same compound, the GI50 (SF-268) was > 100 µM (inactive), the GI50 (HCC 2998) was > 100 µM (inactive) and the GI50 (Malme-3M) was > 100 µM (inactive). For the same compound, the GI50 (HOP-92) was > 100 µM (inactive), the GI50 (SF-295) was > 100 µM (inactive) and the GI50 (786-0) was > 100 µM (inactive). The GI50 (SNB-75) was > 100 µM (inactive) and the GI50 (SK-MEL-28) was > 100 µM (inactive).
In the case of `CC1=C[P+](Cc2ccccc2)(c2ccccc2)CC1` (configuration not stated), the GI50 (DMS-273) is reported as 80.9 µM (inactive), the GI50 (DLD-1) is reported as > 100 µM (inactive) and the GI50 (SNB-78) is reported as > 100 µM (inactive). For the same compound, the GI50 (SK-MEL-5) was 30.9 µM (inactive), the GI50 (LXFL 529) was 37.7 µM (inactive) and the GI50 (K562) was 93.8 µM (inactive). The GI50 (RPMI-8226) was 24.1 µM (inactive), the GI50 (KM12) was 85.3 µM (inactive) and the GI50 (NCI-H23) was 97.1 µM (inactive). For the same compound, the GI50 (SK-MEL-2) was 78.7 µM (inactive), the GI50 (EKVX) was 80.2 µM (inactive) and the GI50 (DMS-114) was 28.6 µM (inactive). For the same compound, the GI50 (UACC-257) was 27.8 µM (inactive), the GI50 (OVCAR-4) was > 100 µM (inactive) and the GI50 (HL-60) was 30.1 µM (inactive). The GI50 (M14) was 71.6 µM (inactive), the GI50 (NCI-H522) was 67.5 µM (inactive) and the GI50 (HT-29) was 65.2 µM (inactive). The GI50 (SR) was 74.3 µM (inactive), the GI50 (M19-MEL) was 31.8 µM (inactive) and the GI50 (UACC-62) was 64.3 µM (inactive). The GI50 (OVCAR-3) was 43.2 µM (inactive), the GI50 (COLO 205) was 31.7 µM (inactive) and the GI50 (LOX IMVI) was 77.3 µM (inactive). For the same compound, the GI50 (SF-295) was > 100 µM (inactive) and the GI50 (SNB-75) was 61.1 µM (inactive).
With `Cn1ccnc1Sc1ccc(/C=N/NC(=O)c2ccccc2O)cc1[N+](=O)[O-]` the GI50 (U-251) was 66.4 µM (inactive), the GI50 (SN12C) was 55 µM (inactive) and the GI50 (MCF7) was 84.3 µM (inactive). For the same compound, the GI50 (ACHN) was > 100 µM (inactive), the GI50 (RXF 393) was > 100 µM (inactive) and the GI50 (OVCAR-8) was > 100 µM (inactive). The GI50 (SF-539) was 60.7 µM (inactive), the GI50 (SK-MEL-5) was 55.7 µM (inactive) and the GI50 (UO-31) was 79.1 µM (inactive). For the same compound, the GI50 (MOLT-4) was 0.428 µM (active), the GI50 (K562) was 0.298 µM (active) and the GI50 (A498) was > 100 µM (inactive). For the same compound, the GI50 (RPMI-8226) was 0.0723 µM (active), the GI50 (TK-10) was > 100 µM (inactive) and the GI50 (MDA-N) was 61.5 µM (inactive). The GI50 (DU-145) was > 100 µM (inactive), the GI50 (KM12) was > 100 µM (inactive) and the GI50 (IGROV-1) was 35.1 µM (inactive). For the same compound, the GI50 (NCI-H23) was 56.9 µM (inactive), the GI50 (SK-MEL-2) was 37.8 µM (inactive) and the GI50 (EKVX) was 94 µM (inactive). The GI50 (SW-620) was > 100 µM (inactive), the GI50 (NCI-H460) was 69.5 µM (inactive) and the GI50 (UACC-257) was > 100 µM (inactive). For the same compound, the GI50 (OVCAR-4) was 72.6 µM (inactive), the GI50 (T47D) was 80.2 µM (inactive) and the GI50 (HCT-116) was 70.1 µM (inactive). The GI50 (CAKI-1) was 72.8 µM (inactive), the GI50 (HL-60) was 44.9 µM (inactive) and the GI50 (HCT-15) was 39.6 µM. The GI50 (Hs-578T) was 92.5 µM (inactive), the GI50 (M14) was > 100 µM (inactive) and the GI50 (NCI-H522) was 41.7 µM (inactive). For the same compound, the GI50 (A549) was > 100 µM (inactive), the GI50 (HOP-62) was 73.6 µM (inactive) and the GI50 (HT-29) was 33.7 µM (inactive). For the same compound, the GI50 (SNB-19) was > 100 µM (inactive), the GI50 (PC-3) was 56.9 µM (inactive) and the GI50 (MDA-MB-435) was 57 µM (inactive). The GI50 (OVCAR-5) was > 100 µM (inactive), the GI50 (SR) was 2.27 µM (inactive) and the GI50 (UACC-62) was 86.1 µM (inactive). For the same compound, the GI50 (OVCAR-3) was > 100 µM (inactive), the GI50 (COLO 205) was 22.2 µM (inactive) and the GI50 (NCI/ADR-RES) was > 100 µM (inactive). For the same compound, the GI50 (SK-OV-3) was > 100 µM (inactive), the GI50 (NCI-H226) was > 100 µM (inactive) and the GI50 (SF-268) was 48.8 µM (inactive). For the same compound, the GI50 (HCC 2998) was 96.4 µM (inactive), the GI50 (BT-549) was 89.7 µM (inactive) and the GI50 (LOX IMVI) was 65.2 µM (inactive). For the same compound, the GI50 (Malme-3M) was 40.9 µM (inactive), the GI50 (CCRF-CEM) was 37.6 µM (inactive) and the GI50 (HOP-92) was > 100 µM (inactive). The GI50 (SF-295) was > 100 µM (inactive), the GI50 (786-0) was 61.4 µM (inactive) and the GI50 (SNB-75) was > 100 µM (inactive). The GI50 (MDA-MB-231) was > 100 µM (inactive) and the GI50 (SK-MEL-28) was > 100 µM (inactive).
`CC1[C@@H]2CC=C3[C@H]4CCC5Cc6nc7c(nc6C[C@@]5(C)C4CC(=O)[C@]32CO[C@]12OC(C)(C)CC2O)CC1CC[C@@H]2C3=C[C@H]4O[C@@]5(O[C@@](C)(CO)C[C@@H]5O)C(C)[C@@]4(O)[C@]3(C)[C@@H](O)CC2[C@]1(C)C7` (some centres not stated) was tested, and the GI50 (DMS-273) was 0.000105 µM (active), the GI50 (A498) was 0.00143 µM (active) and the GI50 (TK-10) was 0.034 µM (active). The GI50 (NCI-H23) was 0.0055 µM (active), the GI50 (DMS-114) was 0.000172 µM (active) and the GI50 (NCI-H522) was 0.00121 µM (active). For the same compound, the GI50 (NCI-H226) was 0.00273 µM (active) and the GI50 (HCC 2998) was 0.0955 µM (active).
